From US11969400B2, “Ibuprofen for symptomatic treatment of diarrheas in HIV patients” (priority 2021, dated 2024)

System: noninfectious diarrhea in HIV positive subjects
Assay: Randomized double-blinded study of Acetaminophen vs Ibuprofen suspension in HIV positive subjects with noninfectious diarrhea
Format: in vivo, human
Conditions: for average number of stools twenty-four hours later: after 24 hours of treatment, clear liquid diet, range in brackets, two-tailed p <0.0001 between groups, 95% CI 1.44-2.6; for average number of stools on the first visit (day 1): baseline at first visit (day 1), 42 enrollees per group
Description: HIV positive subjects who present with noninfectious diarrhea are enrolled in a study. All enrollees are randomly divided into two groups A (Acetaminophen) and B (Ibuprofen) and treated for 24 hours. They receive a double-blinded suspension of either Acetaminophen or Ibuprofen during the study period. The enrollees are instructed to consume only a clear liquid diet during the study period. After 24 hours, the number of loose stools since last visit and status of hydration are reassessed. In addition, enrollees are examined and assessed for any possible side effects of the medications. A total of 84 patients are enrolled into the study. Both drug categories has 42 (50%) enrollees. Two patients are lost to follow up in each group. The average number of stools on the first visit (day 1) in group A (Acetaminophen) is 5.12 and the average number of stools in group B (ibuprofen) is 5.25. Twenty-four hours later, the average number of stools, in group A is 3.45 (1-5) and the average number of stool in group B, is 1.9 (0-4). The two-tailed p-value was <0.0001 with a confidence interval at 95% (1.44-2.6).

SMILES: CC(=O)Nc1ccc(O)cc1 [Acetaminophen]
- average number of stools twenty-four hours later: 3.45 (1-5)
- average number of stools on the first visit (day 1): 5.12

SMILES: CC(C)Cc1ccc(C(C)C(=O)O)cc1 (stereo not shown) [ibuprofen]
- average number of stools twenty-four hours later: 1.9 (0-4)
- average number of stools on the first visit (day 1): 5.25
